US5191072A, “Lipid A monosaccharide analogues” (priority 1989, dated 1993)
Like-named read-outs stand apart in the source and are kept apart here.

Legend:
TNF = assay: TNF-producing activity (TNF titer in serum of mice, cytotoxicity assay using L929 cells); format: in vivo; settings: 10 μg/mouse intravenously, Corynebacterium parvum-primed ICR mouse, serum at 90 minutes; titer = reciprocal of dilution showing 50% cytotoxicity
Description: TNF-producing activity was evaluated utilizing the following experiment system.
The first stimulating agent, 5% Corynebacterium parvum suspension (0.2 ml physiological saline solution) was intravenously administered to ICR mouse (female, 6-7 week-aged). Nine days later, the second stimulating agent, the compound of this invention was intravenously administered to the same mouse at 10 μg/mouse. In 90 minutes, 0.5-1 ml of blood was taken from the retro orbital plexus. The obtained blood was allowed to clot at room temperature for five to six hours, and centrifuged at 7200×g for five minutes to separate serum. The obtained serum was incubated at 56° C. for 30 minutes for inactivation before use in the following experiment.
TNF activity in the serum was measured with cytotoxicity assay using L929 cells. L929 cells were prepared in concentration of 6×10^4 cells/well (0.1 ml) RPMI 1640 medium containing 10% FBS and 2 μg/ml actinomycin D in 96-well plates. Serial dilution of obtained serum in RPMI 1640 medium containing 10% FBS was added to each well in the plate (0.1 ml/well). After a 48 hr incubation at 37° C., the viable cells were fixed with methanol. […] Next, absorbance at 550 nm was measured. Finally, cytotoxicity ratio (%) was calculated according to the following formula, and the reciprocal of dilution of the serum showing 50% cytotoxicity was determined for TNF titer in serum (U/ml). […]

E.coli. 589 strain = assay: Nonspecific protective activity against bacterial infection in immunosuppressed mouse; format: in vivo; settings: ICR mice, cyclophosphamide 200 mg/kg, E.coli 1.0×10^7 CFU/mouse i.p.
Description: Nonspecific Protective Activity Against Bacterial Infection in Immunosuppressed Mouse
Protective effect against bacterial infection in immunosuppressed mouse was evaluated by utilizing the following experiment system.
To a group of ten ICR mice (male, 5-week aged), cyclophosphamide (200 mg/kg) was intraperitoneally administered. Three days later, the compound of this invention was also intraperitoneally administered. Twenty four hours later, E.coli. 589 strain, was intraperitoneally inoculated at 1.0×10^7 CFU/mouse. The protective activities against infection was evaluated from survival rate (%) of mice after six days of bacterial infection.

neutrophils = assay: O2^- production stimulating activity in neutrophils; format: cell-based, C3 H/HeN mouse; settings: Neutrophil, 1 h, read-out: Stimulation %
Description: O2^- Production Stimulating Activity in Neutrophils
O2^- production stimulating activity in neutrophils was evaluated utilizing the following experimental system [see J. Exp. Med., 160, 1656-1671, 1984]. To the peritoneal cavity of C3 H/HeN mouse (male, 8-9 week-aged), physiological saline containing 0.2% (w/v) casein was administered. Three hours later, peritoneal exudate cells (90% or more of which are neutrophils) were collected. These cells (1.7×10^6 cells/ml/tube) were incubated in the presence of the compound according to this invention (1 μg/ml) at 37° C. for 60 minutes. After addition of 80 μM of cytochrome C and 0.1 μM of formyl-methionyl-leucyl-phenylalanine (FMLP), the mixture was incubated in the presence of or in the absence of Superoxide dismutase (SOD) at 37° C. for 10 minutes. Then, SOD-inhibitable cytochrome C reduction was estimated from the difference between absorbances at 550 nm and 541.7 nm, and from molar absorption coefficient (16.5×10^3). O2^- production-stimulating activity was shown in Stimulation % in the following formula.
Stimulation %=(the amount of O2^- produced in the presence of compounds of the invention)/(the amount of O2^- produced in the absence of compounds of the invention)×100-100

[1] = Lethal toxicity in galactosamine-sensitized mice; format: in vivo; settings: galactosamine-sensitized mice; intravenous, C57BL mouse, D-galactosamine/HCl 10 mg/mouse i.p.; observed to seventh day; read-out: LD50 (galactosamine load)
Description: (§1) Lethal Toxicity in Galactosamine-Sensitized Mice
(§2) Lethal toxicity in galactosamin-sensitized mice was evaluated by utilizing the following experiment system [see J.Biochem., 98, 395-406 pp., 1985].
(§3) To C57BL mouse (male, 7-week aged), 10 mg/mouse of D-galactosamine/HCl was intraperitoneally administered. Immediately after that, the compound of this invention was intravenously administered. After these administrations, general conditions of the mouse were observed every one hour for seven hours, and every day from the following day to the seventh day.

[2] = system: galactosamine-sensitized mice; assay: Lethal toxicity in galactosamine-sensitized mice; format: in vivo; settings: intravenous, C57BL mouse, D-galactosamine/HCl 10 mg/mouse i.p.; observed to seventh day; 10080 min
Description: as §1, §2, §3

[3] = compound 1 μg/ml, 37° C., 60 minutes, 0.1 μM FMLP, mouse peritoneal exudate cells

CCCCCCCCCCCCCC(=O)OC(CCCCCCCCCCC)CC(=O)O[C@H]1[C@H](OP(=O)(O)O)[C@@H](CO)OC(O)[C@@H]1NC(=O)CC(O)CCCCCCCCCCC (stereo partly drawn) [GLA60, 2-deoxy-2-(3-hydroxytetradecanaymidno)-4-0-phosphorno-3-0-[(3-O-tetradecanoyl)-tetradecanoyl]-D-glucopyranose]
the amount of the TNF in serum (TNF): 216809 U/ml
survival rate of mice after six days of infection (E.coli. 589 strain; 0.005 mg/kg i.p.): 33%
survival rate of mice after six days of infection (E.coli. 589 strain; 0.05 mg/kg i.p.): 43%
survival rate of mice after six days of infection (E.coli. 589 strain; 0.5 mg/kg i.p.): 70%
activation at 1 µg/mL (neutrophils; Mus musculus): 71%
LD50 at 168 h [1]: 3 µg/kg

CCCCCCCCCCCCCCCCC(CCCCCCCCCCC)CC(=O)O[C@H]1[C@H](OP(=O)(O)O)[C@@H](CO)OC(O)[C@@H]1NC(=O)C[C@H](O)CCCCCCCCCCC (mixture of isomers) [Compound 48, 2-deoxy-2-[(3R)-3-hydroxytetradecanamido]-4-O-phosphono-3-O-[(3RS)-3-undecylnonadecanoyl]-D-glucopyranose]
activation at 1 µg/mL (neutrophils; [3]): 69%

CCCCCCCCCCCCCC(=O)OC(CCCCCCCCCCC)CC(=O)NC1C(OCC2OC(OP(=O)(O)O)C(NC(=O)CC(O)CCCCCCCCCCC)C(OC(=O)CC(O)CCCCCCCCCCC)C2O)OC(CO)C(OP(=O)(O)O)C1OC(=O)CC(CCCCCCCCCCC)OC(=O)CCCCCCCCCCCCC (stereo not shown) [Lipid A]
survival rate of mice after six days of infection (E.coli. 589 strain; 0.05 mg/kg i.p.): 75%
LD50 (galactosamine load) [2]: 0.3 µg/kg

CCCCCCCCCCCCCCC(CCCCCCCCCCC)CC(=O)O[C@H]1[C@H](OP(=O)(O)O)[C@@H](CO)OC[C@@H]1NC(=O)C[C@H](O)CCCCCCCCCCC (stereo partly shown) [Compound 47*]
activation at 1 µg/mL (neutrophils; Mus musculus): 111%
LD50 at 168 h [1]: 11.8 µg/kg

CCCCCCCCCCCCCCC(CCCCCCCCCCC)CC(=O)O[C@H]1[C@H](OP(=O)(O)O)[C@@H](CO)OC(O)[C@@H]1NC(=O)C[C@H](O)CCCCCCCCCCC (mixture of isomers) [Compound 47, 2-deoxy-2-[(3R)-3-hydroxytetradecanamido]-4-O-phosphono-3-O-[(3RS)-3-undecylheptadecanoyl]-D-glucopyranose]
activation at 1 µg/mL (neutrophils; [3]): 73%

CCCCCCCCCCCCC(CCCCCCCCCCC)CC(=O)O[C@H]1[C@H](OP(=O)(O)O)[C@@H](CO)OC(O)[C@@H]1NC(=O)C[C@H](O)CCCCCCCCCCC (mixture of isomers) [Compound 46, 2-deoxy-2-[(3R)-3-hydroxytetradecanamido]-4-O-phosphono-3-O-[(3RS)-3-undecylpentadecanoyl]-D-glucopyranose]
the amount of the TNF in serum (TNF): 292354 U/ml
